Columns and labels:
Assay in all cases: Test C greenhouse herbicide test, pre- and postemergence
Format in all cases: in vivo
[1] = system: ryegrass, Italian (Italian ryegrass, Lolium multiflorum)
Summary of the method: (§1)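 Visual ratings on a 0 to 100 scale (0 = no effect, 100 = complete control) versus untreated controls, scored 13–15 d after treatment. Soil-applied preemergence to seeded loam/sand; foliar postemergence to 1- to 4-leaf plants (2–18 cm) in peat-vermiculite mix; compounds formulated in solvent plus surfactant.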

[2] = system: wheat (winter wheat, Triticum aestivum)
Summary of the method: as §1

[3] = system: galium (catchweed bedstraw, Galium aparine)
Summary of the method: as §1

[4] = system: pigweed (Amaranthus retroflexus)
Summary of the method: as §1

[5] = system: foxtail, giant (giant foxtail, Setaria faberii)
Summary of the method: as §1

corn (Zea mays) = system: corn (Zea mays)
Summary of the method: as §1

[6] = system: blackgrass (Alopecurus myosuroides)
Summary of the method: as §1

[7] = system: ragweed (common ragweed, Ambrosia elatior)
Summary of the method: as §1

[8] = system: lambsquarters (Chenopodium album)
Summary of the method: as §1

[9] = system: crabgrass, large (large crabgrass, Digitaria sanguinalis)
Summary of the method: as §1

[10] = system: morningglory (Ipomoea coccinea)
Summary of the method: as §1

[11] = system: velvetleaf (Abutilon theophrasti)
Summary of the method: as §1

[12] = system: barnyardgrass (Echinochloa crus-galli)
Summary of the method: as §1

[13] = system: oilseed rape (Brassica napus)
Summary of the method: as §1

[14] = system: waterhemp (common waterhemp, Amaranthus rudis)
Summary of the method: as §1

[15] = Postemergence, 31 g ai/ha, scale 0 to 100 (0 no effect, 100 complete control)
[16] = Postemergence, 62 g ai/ha, 0 to 100 scale (0 no effect, 100 complete control)
[17] = Postemergence, 250 g ai/ha, scale 0 to 100, 0 no effect, 100 complete control, 13 to 15 d
[18] = Preemergence, 31 g ai/ha, scale 0 to 100, 0 is no effect, 100 is complete control
[19] = Preemergence, 62 g ai/ha, scale 0 to 100, 0 is no effect, 100 is complete control
[20] = Preemergence, 125 g ai/ha, scale 0 to 100, 0 is no effect, 100 is complete control
[21] = Preemergence, 250 g ai/ha, scale 0 to 100, 0 no effect, 100 complete control
[22] = postemergence, 125 g ai/ha, scale 0 to 100, 0 no effect, 100 complete control

CCC(=O)Oc1c(C)nn(C)c(=O)c1-c1ccc(Br)c2ccccc12 [Compound 134]
Plant response rating, Ryegrass, Italian [1, 15]: 5 | Ryegrass, Italian plant response rating [1, 16]: 15 | Plant response rating, Ryegrass, Italian [1, 17]: 40 | Plant response rating, Ryegrass, Italian [1, 18]: 98 | Plant response rating, Ryegrass, Italian [1, 19]: 100 | Plant response rating, Ryegrass, Italian [1, 20]: 100 | Ryegrass, Italian plant response rating [1, 21]: 100 | Ryegrass, Italian plant response rating [1, 22]: 20 | Plant response rating, Wheat [2, 15]: 30 | Wheat plant response rating [2, 16]: 50 | Plant response rating, Wheat [2, 17]: 90 | Plant response rating, Wheat [2, 18]: 0 | Plant response rating, Wheat [2, 19]: 0 | Plant response rating, Wheat [2, 20]: 15 | Wheat plant response rating [2, 21]: 40 | Wheat plant response rating [2, 22]: 65 | Plant response rating, Galium [3, 15]: 95 | Galium plant response rating [3, 16]: 95 | Plant response rating, Galium [3, 17]: 100 | Plant response rating, Galium [3, 18]: 100 | Plant response rating, Galium [3, 19]: 98 | Plant response rating, Galium [3, 20]: 98 | Galium plant response rating [3, 21]: 98 | Galium plant response rating [3, 22]: 100 | Plant response rating, Pigweed [4, 15]: 80 | Pigweed plant response rating [4, 16]: 100 | Plant response rating, Pigweed [4, 17]: 100 | Plant response rating, Pigweed [4, 18]: 75 | Plant response rating, Pigweed [4, 19]: 100 | Plant response rating, Pigweed [4, 20]: 100 | Pigweed plant response rating [4, 21]: 100 | Pigweed plant response rating [4, 22]: 100 | Plant response rating, Foxtail, Giant [5, 15]: 15 | Foxtail, Giant plant response rating [5, 16]: 25 | Plant response rating, Foxtail, Giant [5, 17]: 45 | Plant response rating, Foxtail, Giant [5, 18]: 25 | Plant response rating, Foxtail, Giant [5, 19]: 75 | Plant response rating, Foxtail, Giant [5, 20]: 70 | Foxtail, Giant plant response rating [5, 21]: 80 | Foxtail, Giant plant response rating [5, 22]: 35 | Plant response rating, Corn (corn (Zea mays); [15]): 5 | Corn plant response rating (corn (Zea mays); [16]): 10 | Plant response rating, Corn (corn (Zea mays); [17]): 15 | Plant response rating, Corn (corn (Zea mays); [18]): 0 | Plant response rating, Corn (corn (Zea mays); [19]): 0 | Plant response rating, Corn (corn (Zea mays); [20]): 10 | Corn plant response rating (corn (Zea mays); [21]): 5 | Corn plant response rating (corn (Zea mays); [22]): 10 | Plant response rating, Blackgrass [6, 15]: 50 | Blackgrass plant response rating [6, 16]: 45 | Plant response rating, Blackgrass [6, 17]: 98 | Plant response rating, Blackgrass [6, 18]: 20 | Plant response rating, Blackgrass [6, 19]: 40 | Plant response rating, Blackgrass [6, 20]: 40 | Blackgrass plant response rating [6, 21]: 75 | Blackgrass plant response rating [6, 22]: 50 | Plant response rating, Ragweed [7, 15]: 0 | Ragweed plant response rating [7, 16]: 5 | Plant response rating, Ragweed [7, 17]: 30 | Plant response rating, Ragweed [7, 18]: 70 | Plant response rating, Ragweed [7, 19]: 95 | Plant response rating, Ragweed [7, 20]: 95 | Ragweed plant response rating [7, 21]: 98 | Ragweed plant response rating [7, 22]: 5 | Plant response rating, Lambsquarters [8, 15]: 100 | Lambsquarters plant response rating [8, 16]: 98 | Plant response rating, Lambsquarters [8, 17]: 100 | Plant response rating, Lambsquarters [8, 18]: 75 | Plant response rating, Lambsquarters [8, 19]: 90 | Plant response rating, Lambsquarters [8, 20]: 100 | Lambsquarters plant response rating [8, 21]: 100 | Lambsquarters plant response rating [8, 22]: 100 | Plant response rating, Crabgrass, Large [9, 15]: 5 | Crabgrass, Large plant response rating [9, 16]: 10 | Plant response rating, Crabgrass, Large [9, 17]: 40 | Plant response rating, Crabgrass, Large [9, 18]: 5 | Plant response rating, Crabgrass, Large [9, 19]: 30 | Plant response rating, Crabgrass, Large [9, 20]: 40 | Crabgrass, Large plant response rating [9, 21]: 60 | Crabgrass, Large plant response rating [9, 22]: 15 | Plant response rating, Morningglory [10, 15]: 98 | Morningglory plant response rating [10, 16]: 100 | Plant response rating, Morningglory [10, 17]: 100 | Plant response rating, Morningglory [10, 18]: 75 | Plant response rating, Morningglory [10, 19]: 90 | Plant response rating, Morningglory [10, 20]: 95 | Morningglory plant response rating [10, 21]: 100 | Morningglory plant response rating [10, 22]: 100 | Plant response rating, Velvetleaf [11, 15]: 80 | Velvetleaf plant response rating [11, 16]: 90 | Plant response rating, Velvetleaf [11, 17]: 100 | Plant response rating, Velvetleaf [11, 18]: 75 | Plant response rating, Velvetleaf [11, 19]: 90 | Plant response rating, Velvetleaf [11, 20]: 90 | Velvetleaf plant response rating [11, 21]: 100 | Velvetleaf plant response rating [11, 22]: 100 | Plant response rating, Barnyardgrass [12, 15]: 10 | Barnyardgrass plant response rating [12, 16]: 20 | Plant response rating, Barnyardgrass ([12]; Postemergence, 125 g ai/ha, scale 0 to 100, 0 is no effect, 100 is complete control): 40 | Plant response rating, Barnyardgrass [12, 17]: 55 | Plant response rating, Barnyardgrass [12, 18]: 5 | Plant response rating, Barnyardgrass [12, 19]: 40 | Plant response rating, Barnyardgrass [12, 20]: 70 | Barnyardgrass plant response rating [12, 21]: 90 | Plant response rating, Oilseed Rape [13, 15]: 95 | Oilseed Rape plant response rating [13, 16]: 100 | Plant response rating, Oilseed Rape [13, 17]: 100 | Plant response rating, Oilseed Rape [13, 18]: 55 | Plant response rating, Oilseed Rape [13, 19]: 90 | Plant response rating, Oilseed Rape [13, 20]: 90 | Oilseed Rape plant response rating [13, 21]: 98 | Oilseed Rape plant response rating [13, 22]: 100 | Plant response rating, Waterhemp [14, 15]: 98 | Waterhemp plant response rating [14, 16]: 100 | Plant response rating, Waterhemp [14, 17]: 100 | Plant response rating, Waterhemp [14, 18]: 90 | Plant response rating, Waterhemp [14, 19]: 98 | Plant response rating, Waterhemp [14, 20]: 98 | Waterhemp plant response rating [14, 21]: 100 | Waterhemp plant response rating [14, 22]: 100

Source: patent publication US10597388B2, “Pyridazinone herbicides” (FMC CORPORATION, priority 2014, dated 2020)
